From patent US20030198617A1, “Pharmaceutical tryptophan containing dipeptide compositions and methods of use thereof” (priority 1993, published 2003)
Like-named read-outs stand apart in the source and are kept apart here.

Key:
Bronchial asthma = type: in vivo, human
Excerpt: Patients, children and adults, with bronchial asthma are studied. […] A significant reduction in bronchial obstruction and laryngotracheitis is noted.
A total of 37 patients, children and adults, with bronchial asthma and 28 similar patients as controls were studied. […] The significant reduction in bronchial obstruction and laryngotracheitis was noted. […] In some of the patients it was possible to avoid steroids in the conventional commitment treatment course. In the allowing year observation there was noted a decrease in the incidence of bronchial asthma 4.2 fold. In more than half of the patients the disappearance of drug and food allergy manifestations was noted.

[1] = system: antibiotic-resistant staphylococci; test: Chronic skin diseases caused by antibiotic-resistant staphylococci; type: in vivo, human
Description: Ile-Trp is administered to patients suffering from chronic skin diseases caused by antibiotic-resistant staphylococci. Ile-Trp is administered IM in single daily doses of 100 μg for 5 days and intranasally to a different group in the same daily and total dose. In the patients with signs of secondary T-immunodeficiency the staphylococci antibiotic sensitivity to one, few or all antibiotics is increased which then permits one to choose for each patient an effective antibiotic with exclusively high activity against a given pathogen.
47 patients with the same pathology but not treated with the immunomodulator were the control group. […] The differences between these methods of application were not noticed. In all the patients with signs of secondary T-immunodeficiency the staphylococci antibiotic-sensitivity to one, few or all antibiotics has been increased sharply (more than 100-fold) what permitted further to choose for each patient the antibiotic with exclusively high activity against pathogen. As a whole, within the examined group of patients the reliable decease of MIC of all studied antibiotics has been marked. The proposed treatment regiment permitted to obtain the complete recovery in 27 patients, significant improvement—in 8 patients and moderate improvement—in 1 patient.

[2] = Sinus disease patients (Examples 14, 63); type: in vivo, human; settings: 3-10 days
Excerpt: The decrease of treatment duration up to 1.7 times compared to controls.

[3] = Chemotherapy complications and side effects; type: in vivo, human
Cutaneous burns = type: in vivo, human
Description: Patients with cutaneous burns are treated with Ile-Trp either IM or intranasally.

flu = type: in vivo, human; settings: 3 days, with anti-flu vaccination
[4] = Bone-marrow compromise (transplant or radiation exposure); type: in vivo, human
herpetic lesions = test: Recurrent herpetic lesions; type: in vivo, human; settings: for recurrence of herpetic lesions: IM or intranasally
[5] = Patients with various allergies; type: in vivo, human
leprosy = test: Leprosy (Hansen's disease); type: in vivo, human
[6] = Deformity and scarring after injuries; type: in vivo, human
Toxemia of pregnancy = type: in vivo, human
Description: Ile-Trp is applied in pregnant women with Toxemia of first and second half of pregnancy. Ile-Trp is administered IM and intranasally at 100 μg daily for 5-10 days. It is observed that the BP normalized, and peripheral edema is reduced with normalization of the blood chemistry profile, and the restoration of initially altered immunologic indices.
The control group comprised 54 patients.

[7] = Gingival disease patients; type: in vivo, human
Description: Patients are treated for gingival disease by subcutaneous administration of Ile-Trp in the area of the gingiva. […] Administration of 100 μg IM, subcutaneously, or by electrophoresis (whereby a small voltage charge to the gums results in a rapid transfer of medication through the gum epithelium) results in the arresting of bleeding, more rapid restoration of inflammatory processes, and the decrease of purulent discharge. The treatment results in fewer recurrences and prolongation of normal gums.

viral infection = test: Acute respiratory disease patients; type: in vivo, human
Description: Patients with acute respiratory disease, including upper airway diseases, such as colds, are treated with Ile-Trp. […] Secondary infectious complications are diminished, and the duration of the treatment is also diminished.
There was noted a decrease in the specific signs of upper respiratory infections such rhinorrhea, sore throat, fever, muscle aches, headaches, and ear pain. Secondary infectious complications were diminished, and the duration of the treatment was also diminished.

Acne vulgaris patients = type: in vivo, human
Excerpt: A number of patients within the group patients afflicted with furunculitis, pyoderma, cellulitis, and folliculitis are afflicted with acne vulgaris and acne. […] The clinical outcome correlates with the correction of immunological indices, and relapses are controlled.
A number of patients within the group of 159 patients afflicted with furunculitis, pyoderma, cellulitis, and folliculitis were afflicted with acne vulgaris and acne. […] The clinical outcome correlated with the correction of immunological indices, and relapses were controlled.

[8] = Antibiotic-treated patients with unfavorable allergological history; type: in vivo, human
Description: Ile-Trp is applied in patients treated with antibiotics for various indications who have unfavorable allergological history. Ile-Trp is administered IM or intranasally single daily at 100 μg for 5-10 days.
Control group comprised 43 patients.

[9] = Female patients with pelvic inflammatory diseases, cervicitis, vaginitis, abscesses; type: in vivo, human
Description: Female patients with the various disorders (pelvic inflammatory diseases, cervicitis, vaginitis and various tubo-ovarian and adnexal abscesses) are treated and some patients are used as controls. Ile-Trp is applied IM, intranasally at 100 μg 5 consecutive days or 50 μg intralymphatically for 5 consecutive days in conjunction with conventional therapy. […] The normalization of immune status correlates with clinical improvements.
The normalization of immune status correlated with clinical improvements.

Description for Shigella: A total 125 patients infected with Shigella dysentery are examined.
A total 125 patients with 53 patients for control infected with Shigella dysentery were examined.

Glu-Trp [IM862]
decrease in the incidence of bronchial asthma (Bronchial asthma; IM862, following year observation): 4.2 fold
clinical effect (Bronchial asthma; IM862 IM 1 μg/kg 5-10 days, 37 patients): less severe clinical symptoms
increase of staphylococci antibiotic-sensitivity ([1]; IM862 100 μg 5 days, patients with secondary T-immunodeficiency): more than 100 fold
complete recovery, number of patients ([1]; IM862 treatment regimen): 27 patients
moderate improvement, number of patients ([1]; IM862 treatment regimen): 1 patient
significant improvement, number of patients ([1]; IM862 treatment regimen): 8 patients
decrease of treatment duration compared to controls ([2]; IM862 1 μg/kg): up to 1.7 times
clinical effect ([2]; IM862 1 μg/kg, 51 patients): normalization of nasal breathing
clinical effect (Shigella; IM862 IM 100 μg 10 days, 125 patients): normalization of fever
clinical effect ([3]; IM862 during chemotherapy): fewer complications and side effects related to chemotherapy
clinical effect (Cutaneous burns; IM862 IM or intranasally, 23 patients): Accelerated wound healing, diminished frequency of infections, and less eschar
sickness rate for 12 months (flu; IM862 50 μg, 268 persons): significant decrease of sickness rate
clinical effect ([4]; IM862 IM or intranasally): improved immune parameters
outbreaks per year after treatment (herpetic lesions; IM862 in combination with interferon, 7-10 outbreaks per year before): less than one outbreak per year
recurrence of herpetic lesions (herpetic lesions; IM862 topically): marked reduction of recurrence of herpetic lesions
clinical effect ([5]; IM862 1 μg/kg 5-7 days, 29 patients): disappearance of allergic reactions
clinical effect (leprosy; IM862 100 μg 5 days with conventional therapy, 45 patients): resolution of the lesions
clinical effect ([6]; IM862 IM or intranasally): less deformity and scarring
clinical effect (Toxemia of pregnancy; IM862 100 μg daily 5-10 days, 97 women): BP normalized
clinical effect ([7]; IM862, subcutaneous in the gingiva): arresting of gingival disease
clinical effect (viral infection; IM862 100 μg 3-7 days, 186 patients): milder course of the viral infection
immunological indices (Acne vulgaris patients; IM862 group): corrected and normalized rapidly
allergic reactions to antibiotics ([8]; IM862 100 μg 5-10 days, 76 patients, majority of cases): prevented the arising of allergic reactions
clinical effect ([9]; IM862 with conventional therapy, 46 patients): arresting of pain syndrome

Ile-Trp
clinical effect (Bronchial asthma; Ile-Trp IM 1 μg/kg 5-10 days): less severe clinical symptoms
staphylococci antibiotic sensitivity ([1]; Ile-Trp 100 μg 5 days, patients with secondary T-immunodeficiency): is increased
clinical effect ([2]; Ile-Trp 1 μg/kg): normalization of nasal breathing
clinical effect (Shigella; Ile-Trp IM 100 μg 10 days): normalization of fever
clinical effect ([3]; Ile-Trp during chemotherapy): fewer complications and side effects related to chemotherapy
clinical effect (Cutaneous burns; Ile-Trp IM or intranasally): Accelerated wound healing, diminished frequency of infections, and less eschar
sickness rate for 12 months (flu; Ile-Trp 50 μg): significant decrease of sickness rate
clinical effect ([4]; Ile-Trp IM or intranasally): improved immune parameters
recurrence of herpetic lesions (herpetic lesions; Ile-Trp topically): marked reduction of recurrence of herpetic lesions
clinical effect ([5]; Ile-Trp 1 μg/kg 5-7 days): disappearance of allergic reactions
clinical effect (leprosy; Ile-Trp 100 μg 5 days with conventional therapy): resolution of the lesions
clinical effect ([6]; Ile-Trp IM or intranasally): less deformity and scarring
clinical effect (Toxemia of pregnancy; Ile-Trp 100 μg daily 5-10 days): BP normalized
clinical effect ([7]; Ile-Trp, subcutaneous in the gingiva): arresting of gingival disease
clinical effect (viral infection; Ile-Trp 100 μg 3-7 days): milder course of the viral infection
immunological indices (Acne vulgaris patients; Ile-Trp group): corrected and normalized rapidly
allergic reactions to antibiotics ([8]; Ile-Trp 100 μg 5-10 days): prevents the arising of allergic reactions
clinical effect ([9]; Ile-Trp with conventional therapy): arresting of pain syndrome
